Source: US20200140483A1, “USE OF Y PEPTIDE IN PREPARATION OF DRUG OR HEALTHCARE PRODUCT FOR LOWERING BLOOD PRESSURE” (priority 2017, published 2020)
Residues, ends and D or L forms follow the SMILES beside them.

System: SHR rats
Type: in vivo, rat
Experimental: Each group was intragastrically administrated a solution of a corresponding tested substance or ultrapure water, in a volume of 10 mL/kg body weight, once per day for 30 consecutive days. The blood pressure and heart rates of the animals were measured during the administration of the tested substance. The blood pressure was measured with an LE5002 noninvasive blood pressure meter.

N[C@@H](Cc1ccc(O)cc1)C(=O)N[C@@H](Cc1ccc(O)cc1)C(=O)O [YY-peptide] (H-Tyr-Tyr-OH; N-terminus and C-terminus assumed)
blood pressure (SHR rats, 10 mg/kg intragastric once per day, 7th day, model control 161±6): 157±7 | effect in lowering blood pressure (SHR rats, 10 mg/kg, 7th day): significant effect in lowering blood pressure | effect on body weight (rat, in vivo, 10 mg/kg): no obvious effect | effect on heart rates (rat, in vivo, 10 mg/kg): no obvious effect
